Laboratory results reported in patent publication US20250361234A1 (NICO THERAPEUTICS, INC., priority 2022, published 2025).

Target: T1, full-length SARM1 (FL-SARM1) (Homo sapiens, UniProt Q6SZW1)
T1 sequence (Q6SZW1 28-724): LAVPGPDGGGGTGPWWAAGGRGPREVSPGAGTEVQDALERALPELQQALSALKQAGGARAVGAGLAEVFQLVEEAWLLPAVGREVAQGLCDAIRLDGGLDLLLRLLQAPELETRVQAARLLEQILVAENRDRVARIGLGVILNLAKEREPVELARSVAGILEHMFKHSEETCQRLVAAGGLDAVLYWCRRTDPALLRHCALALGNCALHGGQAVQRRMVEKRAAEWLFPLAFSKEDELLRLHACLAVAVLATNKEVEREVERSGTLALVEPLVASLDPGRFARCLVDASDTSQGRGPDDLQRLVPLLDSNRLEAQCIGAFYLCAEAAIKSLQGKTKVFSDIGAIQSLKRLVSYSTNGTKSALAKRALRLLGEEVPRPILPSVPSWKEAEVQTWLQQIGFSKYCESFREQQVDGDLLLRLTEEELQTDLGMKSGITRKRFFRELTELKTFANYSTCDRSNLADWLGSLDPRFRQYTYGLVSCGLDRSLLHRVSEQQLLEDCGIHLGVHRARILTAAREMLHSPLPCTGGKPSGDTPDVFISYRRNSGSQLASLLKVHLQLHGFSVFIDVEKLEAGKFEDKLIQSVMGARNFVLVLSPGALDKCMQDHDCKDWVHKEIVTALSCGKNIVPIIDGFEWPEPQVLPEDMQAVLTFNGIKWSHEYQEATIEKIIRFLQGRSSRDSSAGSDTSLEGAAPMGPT
Assay: FL-SARM1 cellular lysate assay (NAD/NADH-Glo readout of remaining NAD+)
Conditions: SARM1 cellular lysate from transfected HEK293T cells, NAD+ and NMN, 11 point curve
Protocol: Preparation of full-length SARM1 (FL-SARM1) lysate: HEK293T cells (ATCC: CRL-3216) were grown on 150 mm TC-treated dishes to 80-90% confluency in complete DMEM (Thermo Fisher: 11965175) supplemented with 10% HI-FBS (VWR: 10802-772), 1× Pen/Strep (Thermo Fisher: 15140122), 1× NEAA (Thermo Fisher: 1140050), 1× glutamax (Thermo Fisher: 35050061), and 1 mM sodium pyruvate (Thermo Fisher: 11360070)) at 37° C. and 5% CO2. One hour prior to transfection, the media was replaced with fresh, 37° C. complete DMEM (20 mL per one 150 mm dish) supplemented with additional 10 mM glucose (Alfa Aesar AAJ60067EQE). Per one 150 mm dish, 30 μg FL-SARM1 (SEQ. ID. 1; cloned in-house) plasmid was dissolved in 1 mL DMEM at ambient temperature and were mixed by inverting the tube 8-10 times. 90 μL of GenJet™ in vitro DNA transfection reagent (Ver2) was dissolved in 1 mL DMEM at ambient temperature and were mixed by inverting the tube 8-10 times. The plasmid and transfection agent solutions were combined, mixed by 8-10 inversions and incubated for 10 minutes at ambient temperature. 2 mL of this transfection mixture was added to each dish containing HEK293T cells as prepared above followed by a gentle mixing of 4-5 horizontal rotations. The dishes were incubated at 37° C. and 5% CO2 for 24 h. The dishes were removed from the incubator, the medium was aspirated and the cells were scraped off using cell scrapers in ice-cold 1× PBS (5 mL/dish, Thermo Fisher Scientific 10010023). The collected cells were centrifuged at 300 g for 5 minutes at 4° C. The supernatant was aspirated and the pellet was frozen at −80° C. until needed. The cell pellet from 30 dishes was dissolved in 30 mL 1× PBS supplemented with 4 tablets of Complete, Mini EDTA-free protease inhibitor cocktail at 4° C. This mixture was sonicated on ice for 10 minutes at 50% amplitude with a 1 second on/1 second off interval using a Model 120 sonicator (Thermo Fisher Scientific, FB120110). The lysate was centrifuged at 16000 g for 10 minutes at 4° C.
To a white 384-well Proxiplate (PerkinElmer, PE-6008280) was added 50 nL/well of a DMSO solution containing test compounds followed by 7.5 mL/well of a 0.067 mg/mL solution of SARM1 cellular lysate in reaction buffer (DPBS containing CHAPSO (0.1%) and fatty acid free BSA (0.032%)). The plate was centrifuged for 1 minute at 1000 RPM and then placed in an incubator at 23° C. for 15 minutes. To the wells were added 2.5 mL/well of a solution containing 40 mM NAD^+ and 4 mM NMN in reaction buffer. The plate was centrifuged for 1 min at 1000 RPM, the plate was sealed and placed in an incubator at 23° C. for 3.5 hours before adding 3.5 mL/well of NAD/NADH-Glo™ solution (preparation as described by Promega using the extended detection protocol). The plate was centrifuged for 1 minute at 1000 RPM and then incubated at 23° C. for 20 minutes. 1 mL/well of a 3.625 mM solution of menadione in DMSO was added and the plate was centrifuged for 1 minute at 1000 RPM. […] Percent inhibition was calculated as follows:
IC50 values were calculated from an 11 point curve using ½ log dilutions using a four-parameter logistic regression curve fit.

| Compound | IC50 (Activity (μM)) [µM] | IC50 (Activity) [µM] |
| --- | --- | --- |
| Cc1ccc(NC(=O)N2C3C[C@@H]2C[C@@H](C(C)(C)O)C3)cc1-c1cncc(F)c1 [Example 14, trans-N-(3-(5-fluoropyridin-3-yl)-4-methylphenyl)-3-(2-hydroxypropan-2-yl)-6-azabicyclo[3.1.1]heptane-6-carboxamide] | 23.9 | > 10 |
| Cc1ccc(NC(=O)N2[C@@H]3C[C@H](C)C[C@H]2C3)cc1-c1cncc(F)c1 [Example 84, cis-N-(3-(5-fluoropyridin-3-yl)-4-methylphenyl)-3-methyl-6-azabicyclo[3.1.1]heptane-6-carboxamide] | 0.007 | 0.0001 to 1 |
| Cc1nnc([C@]23C[C@H](C)C[C@H](C2)N3C(=O)Nc2cc(-c3cncc(F)c3)c(C)cc2F)o1 (single isomer, unassigned) [Example 125, cis-N-(2-fluoro-5-(5-fluoropyridin-3-yl)-4-methylphenyl)-3-methyl-1-(5-methyl-1,3,4-oxadiazol-2-yl)-6-azabicyclo[3.1.1]heptane-6-carboxamide] | 0.025 | 0.0001 to 1 |
| Cc1ccc(NC(=O)N2C3CCCC2C3)cc1-c1cccnc1C [Example 69, N-[4-methyl-3-(2-methylpyridin-3-yl)phenyl]-6-azabicyclo[3.1.1]heptane-6-carboxamide] | 1.6 | 1 to 10 |
| Cc1ccc(NC(=O)N2C[C@@H]3CC2C[C@H]3C#N)cc1-c1cncc(F)c1 [Example 16, cis-5-cyano-N-(3-(5-fluoropyridin-3-yl)-4-methylphenyl)-2-azabicyclo[2.2.1]heptane-2-carboxamide] | 41 | > 10 |
| Cc1ccc(NC(=O)C2C3CC2CN(CC(F)(F)F)C3)cc1-c1cncc(F)c1 (stereo not drawn) [Example 101, N-[3-(5-fluoropyridin-3-yl)-4-methylphenyl]-3-(2,2,2-trifluoroethyl)-3-azabicyclo[3.1.1]heptane-6-carboxamide] | 0.8 | 0.0001 to 1 |
| CO[C@@H]1CC[C@H]2CC1N2C(=O)Nc1ccc(C)c(-c2cncc(F)c2)c1 [Example 7, trans-N-(3-(5-fluoropyridin-3-yl)-4-methylphenyl)-2-methoxy-6-azabicyclo[3.1.1]heptane-6-carboxamide] | 2 | 1 to 10 |
| Cc1ccc(NC(=O)N2C3C[C@@H](C#N)C[C@@H]2C3)cc1-c1cncc(F)c1 [Example 36, trans-3-cyano-N-(3-(5-fluoropyridin-3-yl)-4-methylphenyl)-6-azabicyclo[3.1.1]heptane-6-carboxamide] | 0.8 | 0.0001 to 1 |
| Cc1ccncc1-c1cc(NC(=O)N2C3CCCC2C3)ccc1C [Example 91, N-(4-methyl-3-(4-methylpyridin-3-yl)phenyl)-6-azabicyclo[3.1.1]heptane-6-carboxamide] | 0.4 | 0.0001 to 1 |
| O=C(Nc1ccc(CCF)c(-c2cncc(F)c2)c1)N1C2CCCC1C2 [Example 28, N-(4-(2-fluoroethyl)-3-(5-fluoropyridin-3-yl)phenyl)-6-azabicyclo[3.1.1]heptane-6-carboxamide] | 0.8 | 0.0001 to 1 |
| Cc1ccc(NC(=O)N2C3CCCC2C3)cc1-c1cccnc1 [Example 86, N-(4-methyl-3-(pyridine-3-yl)phenyl)-6-azabicyclo[3.1.1]heptane-6-carboxamide] | 0.2 | 0.0001 to 1 |
| Cc1nnc(C23CCCC(C2)N3C(=O)Nc2ccc(C)c(-c3cncc(F)c3)c2)o1 (stereo not drawn) [Example 98, N-[3-(5-fluoro-3-pyridyl)-4-methyl-phenyl]-1-(5-methyl-1,3,4-oxadiazol-2-yl)-6-azabicyclo[3.1.1]heptane-6-carboxamide] | 0.2 | 0.0001 to 1 |
| Cc1ccc(NC(=O)N2C3CCCC2C3)cc1-c1cncc(OCF)c1 [Example 45, N-(3-(5-(fluoromethoxy)pyridin-3-yl)-4-methylphenyl)-6-azabicyclo[3.1.1]heptane-6-carboxamide] | 0.06 | 0.0001 to 1 |
| Cc1ccc(NC(=O)[C@H]2C[C@H](C3CC3)C2)cc1-c1cncc(F)c1 [Example 108, trans-3-cyclopropyl-N-[3-(5-fluoropyridin-3-yl)-4-methylphenyl]cyclobutane-1-carboxamide] | 5.3 | 1 to 10 |
| C[C@H]1CC2C[C@@H](C1)N2C(=O)Nc1ccc(C#N)c(-c2cncc(F)c2)c1 (single isomer, unassigned) [Example 78, cis-N-(4-cyano-3-(5-fluoropyridin-3-yl)phenyl)-3-methyl-6-azabicyclo[3.1.1]heptane-6-carboxamide] | 0.1 | 0.0001 to 1 |
| Cc1ccc(NC(=O)OC2CCC2)cc1-c1cncc(F)c1 [Example 126, cyclobutyl (3-(5-fluoropyridin-3-yl)-4-methylphenyl)carbamate] | 20.7 | > 10 |
| Cc1ccc(NC(=O)N2C3C[C@H]2C[C@@]2(C3)CC2(F)F)cc1-c1cncc(F)c1 [Example 11, cis-2′,2′-difluoro-N-(3-(5-fluoropyridin-3-yl)-4-methylphenyl)-6-azaspiro[bicyclo[3.1.1]heptane-3,1′-cyclopropane]-6-carboxamide] | 0.08 | 0.0001 to 1 |
| Cc1ccc(NC(=O)N2C3CC2CC2(CC2)C3)cc1-c1cncc(F)c1 [Example 54, N-(3-(5-fluoropyridin-3-yl)-4-methylphenyl)-6-azaspiro[bicyclo[3.1.1]heptane-3,1′-cyclopropane]-6-carboxamide] | 0.06 | 0.0001 to 1 |
| Cc1ccc(NC(=O)N2C3C[C@@H](C)C[C@@H]2C3)cc1-c1cncc(F)c1 (single isomer, unassigned) [Example 83, trans-N-(3-(5-fluoropyridin-3-yl)-4-methylphenyl)-3-methyl-6-azabicyclo[3.1.1]heptane-6-carboxamide] | 0.01 | 0.0001 to 1 |
| COc1ccncc1-c1cc(NC(=O)N2C3CCCC2C3)ccc1C [Example 59, N-[3-(4-methoxypyridin-3-yl)-4-methylphenyl]-6-azabicyclo[3.1.1]heptane-6-carboxamide] | 1.7 | 1 to 10 |
| C[C@H]1CC2C[C@@H](C1)N2C(=O)Nc1ccc(Cl)c(-c2cncc(F)c2)c1 (single isomer, unassigned) [Example 80, cis-N-(4-chloro-3-(5-fluoropyridin-3-yl)phenyl)-3-methyl-6-azabicyclo[3.1.1]heptane-6-carboxamide] | 0.07 | 0.0001 to 1 |
| Cc1ccc(NC(=O)N2C3CCCC2C3)cc1-c1ccc(C#N)nc1 [Example 60, N-[3-(6-cyanopyridin-3-yl)-4-methylphenyl]-6-azabicyclo[3.1.1]heptane-6-carboxamide] | 8.5 | 1 to 10 |
| Cc1ccc(NC(=O)N2C3C[C@H](OC(F)F)C[C@@H]2C3)cc1-c1cncc(F)c1 [Example 29, cis-3-(difluoromethoxy)-N-(3-(5-fluoropyridin-3-yl)-4-methylphenyl)-6-azabicyclo[3.1.1]heptane-6-carboxamide] | 0.1 | 0.0001 to 1 |
| Cc1ccc(NC(=O)N2CC3CCC2C3)cc1-c1cncc(F)c1 (stereo not drawn) [Example 18, N-(3-(5-fluoropyridin-3-yl)-4-methylphenyl)-2-azabicyclo[2.2.1]heptane-2-carboxamide] | 1 | 1 to 10 |
| Cc1ccc(NC(=O)N2[C@H](C)CCC[C@@H]2C)cc1-c1cncc(F)c1 [Example 21, cis-N-(3-(5-fluoropyridin-3-yl)-4-methylphenyl)-2,6-dimethylpiperidine-1-carboxamide] | 1.5 | 1 to 10 |
| COC[C@H]1C2CCC[C@H]1N2C(=O)Nc1ccc(C)c(-c2cncc(F)c2)c1 [Example 44, N-trans-(3-(5-fluoropyridin-3-yl)-4-methylphenyl)-7-(methoxymethyl)-6-azabicyclo[3.1.1]heptane-6-carboxamide] | 17.2 | > 10 |
| Cc1ncc(-c2cc(NC(=O)N3C4CCCC3C4)ccc2C)cn1 [Example 85, N-(4-methyl-3-(2-methylpyrimidin-5-yl)phenyl)-6-azabicyclo[3.1.1]heptane-6-carboxamide] | 1.8 | 1 to 10 |
| Cc1ccc(NC(=O)N2C[C@@H](C)CC[C@H]2C)cc1-c1cncc(F)c1 (racemic) [Example 8, cis-N-(3-(5-fluoropyridin-3-yl)-4-methylphenyl)-2,5-dimethylpiperidine-1-carboxamide] | 2.6 | 1 to 10 |
| C[C@@H]1CC2C[C@@H](C1)N2C(=O)Nc1ccc(C(F)(F)F)c(-c2cncc(F)c2)c1 (single isomer, unassigned) [Example 52, trans-N-(3-(5-fluoropyridin-3-yl)-4-(trifluoromethyl)phenyl)-3-methyl-6-azabicyclo[3.1.1]heptane-6-carboxamide] | 0.08 | 0.0001 to 1 |
| CCO[C@H]1CC2C[C@H](C1)N2C(=O)Nc1ccc(C)c(-c2cncc(F)c2)c1 [Example 39, trans-3-ethoxy-N-(3-(5-fluoropyridin-3-yl)-4-methylphenyl)-6-azabicyclo[3.1.1]heptane-6-carboxamide] | 8.3 | 1 to 10 |
